Experimental data as given in PMC6463685, “WS-5 Extract of Curcuma longa, Chaenomeles sinensis, and Zingiber officinale Contains Anti-AChE Compounds and Improves β-Amyloid-Induced Memory Impairment in Mice” (Evidence-based Complementary and Alternative Medicine : eCAM, 2019).
pIC50: −log10 of the molar value.

Target: T1, acetylcholinesterase (AChE)
T1 construct: AChE used with commercial BioVision colorimetric AChE assay kit
Experiment: colorimetric AChE kit (choline oxidase/probe), […] nm
Format: biochemical
Details: 37°C, 20 min, AChE substrate 5 mM

| SMILES | pIC50 (also printed as 17.92 μg/ml) | pIC50 (also printed as 10.42 μg/ml) |
| --- | --- | --- |
| CCCCC/C=C/C(=O)CCc1ccc(O)c(OC)c1 [6-Shogaol] | 4.19 | – |
| O=C(O)c1ccc(O)c(O)c1 [Protocatechuic acid] | – | 4.17 |
